# “Also recorded” adds a separate entry of the source. Where two headings read alike, the source gives them in different places.
# Legend:
# [1] = test system: omniresistant Pseudomonas aeruginosa; settings: NCT irrigations, three patients; cited from earlier work
# [2] = transtympanal injection of 0.1%, 1%, and 10% NCT, mice; cited from earlier work
# [3] = Intraperitoneal injection in Swiss mice; format: in vivo; settings: 1% NCT
# Text: NCT is relatively safe and well-tolerated by mammals. For example, as a mild oxidant, tolerability of 1% aqueous NCT solution by human and animal tissue is good.
# [4] = chronic rhinosinusitis, pilot study; cited from earlier work
# [5] = test system: Staphylococcus aureus; settings: local administration, mouse model; cited from earlier work
# [6] = purulent coated crural ulcers; cited from earlier work
# [7] = 1% aqueous NCT solution, human eyes; cited from earlier work
# [8] = test system: external otitis; settings: human external otitis; cited from earlier work
# [9] = test system: infectious conjunctivitis; settings: in vivo; cited from earlier work
# [10] = 1% aqueous NCT solution, rabbit eyes; cited from earlier work
# [11] = test system: all classes of pathogens; settings: cited from earlier work
# [12] = test system: proinflammatory cytokines; settings: cited from earlier work
# [13] = Tolerability of inhaled haloamines in anesthetized pig model; settings: for Arterial partial pressure of oxygen (PaO2) compared to controls: 4 inhalations of 5 mL, hourly over 4 hours; for Heart rate compared to controls: 4 hours measurement
# Experimental: A study was designed to evaluate the tolerability of inhalative haloamines in a pig model. NCT was used as a representative haloamine. Anesthetized pigs inhaled test solutions of 1% NCT (n=7), 5% NCT (n=6), or 1% NCT plus 1% ammonium chloride (n=6), and 0.9% saline solution as a control (n=7), respectively. Applications were performed every hour over a four-hour time period, i.e., four inhalations in total, with 5 mL each.
# Anesthetized pigs inhaled test solutions of 1% NCT (n=7), 5% NCT (n=6), or 1% NCT plus 1% ammonium chloride (n=6), and 0.9% saline solution as a control (n=7), respectively. Applications were performed every hour over a four-hour period, i.e., 4 inhalations in total, with 5 mL each.
# Anesthetized pigs inhaled test solutions of 1% NCT (n=7), 5% NCT (n=6), or 1% NCT plus 1% ammonium chloride (n=6), and 0.9% saline solution as a control (n=7), respectively. Applications were performed every hour within four hours, i.e., 4 inhalations in total, with 5 mL each.
# Anesthetized pigs inhaled test solutions of 1% NCT (n=7), 5% NCT (n=6), or 1% NCT plus 1% ammonium chloride (n=6), and 0.9% saline solution as a control (n=7), respectively. Applications were performed every hour over a four-hour period of time, i.e., 4 inhalations in total, with 5 mL each.
# [14] = test system: viral bronchitis; assay: Inhalation of 1% NCT by human volunteers suffering from viral bronchitis; format: in vivo
smiles,measurement,setting,value
"O=S(=O)(O)CCNCl [NCT, N-chlorotaurine]",Eradication of bacteria from the urinary bladder,[1],possible to eradicate bacteria
same,Damage of the inner ear,[2],did not cause damage of the inner ear
same,Tolerated intraperitoneal dose,[3],tolerated up to one mL 1% NCT
same,Tolerability,[4],good tolerability
same,Inhibition of septic arthritis,[5],inhibited septic arthritis
same,Pain versus chloramine T,[6],significantly less pain
same,Toxicity versus chloramine T,[6],less toxic than chloramine T
same,Tolerability,[7],good
same,Efficacy versus standard medication,[8],more effective than a standard medication
same,Efficacy in infectious conjunctivitis,[9],data indicating efficacy
same,Tolerability,[10],good
same,Antimicrobial spectrum,[11],broad-spectrum antimicrobial activity
same,Induction of resistance of pathogens,[11],resistance of pathogens is not induced
same,Effect on proinflammatory cytokines,[12],down-regulate proinflammatory cytokines
same,Pulmonary artery pressure compared to saline group,[13]; 1% NCT,tended to result in even better values
same,Alveolo-arterial difference of oxygen partial pressure (AaDO2),"[13]; 1% NCT, 4-hour measurement, controls 33.7±9.03, p=0.016",21.0±13.09
same,Arterial partial pressure of oxygen (PaO2) compared to controls,[13]; 1% NCT,No difference in PaO2 to controls
same,Heart rate compared to controls,[13]; 1% NCT,not significantly different from controls
same,Tolerability in the bronchopulmonary system upon inhalation,"[13]; 1% NCT, conclusion from pig and volunteer results",very well tolerated
same,Pulmonary artery pressure compared to controls,[13]; 5% NCT,became higher than in the control group; also recorded: significantly higher values
same,Tolerability upon inhalation,[13]; 5% NCT,very well tolerated
same,Alveolo-arterial difference of oxygen partial pressure (AaDO2) compared to the controls,[13]; 5% NCT (p=0.99),not different
same,Arterial partial pressure of oxygen (PaO2) compared to controls,[13]; 5% NCT,No difference in PaO2 to controls
same,Heart rate compared to controls,[13]; 5% NCT,not significantly different from controls
same,Symptoms experienced by patients,[14]; 5 mL of 1% NCT inhaled for 10 minutes 3 times daily for three days,"easier breathing, less coughing and less expectoration"
same,"Side effects (symptoms for bronchoconstriction, cough, dyspnea)","[14]; 5 mL of 1% NCT inhaled for 10 minutes 3 times daily for three days, three volunteers",no side effects detectable
same,Development of bronchitis after pharyngitis,"[14]; one patient, NCT used as a treatment for pharyngitis",did not develop bronchitis

# From patent US20110151025A1, “Compositions Comprising N-Halogenated or N,N-Dihalogenated Amine for Treatment and Prophylaxis of Bronchopulmonary Infections” (NOVABAY PHARMACEUTICALS, INC., priority 2008, published 2011)
